# Experimental data as given in the NIST ThermoML archive (doi:10.1016/j.tca.2015.02.020).
# Numbers after ± are expanded uncertainties.
# Assay: molar heat capacity at constant pressure; xn = mol fraction of the nth substance listed
# Details: 101 kPa, Small sample (50 mg) DSC
smiles,measurement,setting,value
NCCO [2-aminoethan-1-ol] + O,molar heat capacity at constant pressure,"125.88 K, Glass, x1 = 0.19",25.67 ± 5.2 J/K/mol
same,molar heat capacity at constant pressure,"126.5 K, Glass, x1 = 0.31",30.11 ± 6 J/K/mol
same,molar heat capacity at constant pressure,"126.8 K, Glass, x1 = 0.73",44.51 ± 8.9 J/K/mol
same,molar heat capacity at constant pressure,"126.93 K, Glass, x1 = 0.73",46.98 ± 2 J/K/mol
same,molar heat capacity at constant pressure,"127.09 K, Glass, x1 = 0.23",27.92 ± 1.1 J/K/mol
same,molar heat capacity at constant pressure,"127.56 K, Glass, x1 = 0.19",25.67 ± 1 J/K/mol
same,molar heat capacity at constant pressure,"127.58 K, Glass, x1 = 0.23",28.2 ± 5.6 J/K/mol
same,molar heat capacity at constant pressure,"128.65 K, Glass, x1 = 0.31",31.05 ± 1.3 J/K/mol
same,molar heat capacity at constant pressure,"130.53 K, Glass, x1 = 0.19",28.03 ± 5.5 J/K/mol
same,molar heat capacity at constant pressure,"131.15 K, Glass, x1 = 0.31",31.68 ± 6.3 J/K/mol
same,molar heat capacity at constant pressure,"131.46 K, Glass, x1 = 0.73",45.5 ± 8.9 J/K/mol
same,molar heat capacity at constant pressure,"131.76 K, Glass, x1 = 0.73",48.96 ± 2 J/K/mol
same,molar heat capacity at constant pressure,"131.91 K, Glass, x1 = 0.31",31.68 ± 1.3 J/K/mol
same,molar heat capacity at constant pressure,"131.92 K, Glass, x1 = 0.23",29.6 ± 1.4 J/K/mol
same,molar heat capacity at constant pressure,"132.24 K, Glass, x1 = 0.23",29.6 ± 5.9 J/K/mol
same,molar heat capacity at constant pressure,"132.38 K, Glass, x1 = 0.19",26.72 ± 1 J/K/mol
same,molar heat capacity at constant pressure,"135.04 K, Glass, x1 = 0.73",49.95 ± 2 J/K/mol
same,molar heat capacity at constant pressure,"135.19 K, Glass, x1 = 0.31",32.62 ± 1.3 J/K/mol
same,molar heat capacity at constant pressure,"135.2 K, Glass, x1 = 0.19",30.13 ± 6 J/K/mol
same,molar heat capacity at constant pressure,"135.2 K, Glass, x1 = 0.23",30.71 ± 1.4 J/K/mol
same,molar heat capacity at constant pressure,"135.66 K, Glass, x1 = 0.19",27.77 ± 1.3 J/K/mol
same,molar heat capacity at constant pressure,"136.91 K, Glass, x1 = 0.23",31.55 ± 6.4 J/K/mol
same,molar heat capacity at constant pressure,"136.92 K, Glass, x1 = 0.31",33.88 ± 6.9 J/K/mol
same,molar heat capacity at constant pressure,"137.23 K, Glass, x1 = 0.73",46.98 ± 9.4 J/K/mol
same,molar heat capacity at constant pressure,"139.88 K, Glass, x1 = 0.19",33.27 ± 6.8 J/K/mol
same,molar heat capacity at constant pressure,"141.59 K, Glass, x1 = 0.23",34.34 ± 7 J/K/mol
same,molar heat capacity at constant pressure,"141.59 K, Glass, x1 = 0.31",36.07 ± 7.2 J/K/mol
same,molar heat capacity at constant pressure,"141.6 K, Glass, x1 = 0.73",52.42 ± 2.5 J/K/mol
same,molar heat capacity at constant pressure,"141.75 K, Glass, x1 = 0.23",32.67 ± 1.4 J/K/mol
same,molar heat capacity at constant pressure,"141.75 K, Glass, x1 = 0.31",34.19 ± 1.6 J/K/mol
same,molar heat capacity at constant pressure,"141.91 K, Glass, x1 = 0.73",47.97 ± 9.4 J/K/mol
same,molar heat capacity at constant pressure,"142.22 K, Glass, x1 = 0.19",29.34 ± 1.3 J/K/mol
same,molar heat capacity at constant pressure,"144.56 K, Glass, x1 = 0.19",38.25 ± 7.6 J/K/mol
same,molar heat capacity at constant pressure,"144.88 K, Glass, x1 = 0.73",53.91 ± 2.5 J/K/mol
same,molar heat capacity at constant pressure,"145.03 K, Glass, x1 = 0.31",35.13 ± 1.6 J/K/mol
same,molar heat capacity at constant pressure,"145.04 K, Glass, x1 = 0.23",34.06 ± 1.4 J/K/mol
same,molar heat capacity at constant pressure,"145.51 K, Glass, x1 = 0.19",30.91 ± 1.3 J/K/mol
same,molar heat capacity at constant pressure,"146.28 K, Glass, x1 = 0.23",39.37 ± 7.8 J/K/mol
same,molar heat capacity at constant pressure,"146.28 K, Glass, x1 = 0.31",40.15 ± 8.2 J/K/mol
same,molar heat capacity at constant pressure,"146.6 K, Glass, x1 = 0.73",49.95 ± 9.9 J/K/mol
same,molar heat capacity at constant pressure,"151.3 K, Glass, x1 = 0.73",52.92 ± 10 J/K/mol
same,molar heat capacity at constant pressure,"151.46 K, Glass, x1 = 0.73",56.38 ± 2.5 J/K/mol
same,molar heat capacity at constant pressure,"151.61 K, Glass, x1 = 0.31",39.21 ± 1.6 J/K/mol
same,molar heat capacity at constant pressure,"154.75 K, Glass, x1 = 0.73",57.86 ± 2.5 J/K/mol
same,molar heat capacity at constant pressure,"158.65 K, Liquid, x1 = 0.19",63.66 ± 13 J/K/mol
same,molar heat capacity at constant pressure,"160.38 K, Liquid, x1 = 0.23",65.61 ± 13 J/K/mol
same,molar heat capacity at constant pressure,"161.96 K, Liquid, x1 = 0.19",60.52 ± 2.6 J/K/mol
same,molar heat capacity at constant pressure,"163.35 K, Liquid, x1 = 0.19",64.19 ± 13 J/K/mol
same,molar heat capacity at constant pressure,"164.78 K, Liquid, x1 = 0.31",75.91 ± 3.1 J/K/mol
same,molar heat capacity at constant pressure,"165.07 K, Liquid, x1 = 0.23",65.61 ± 13 J/K/mol
same,molar heat capacity at constant pressure,"165.08 K, Liquid, x1 = 0.31",73.71 ± 15 J/K/mol
same,molar heat capacity at constant pressure,"165.25 K, Liquid, x1 = 0.19",60.78 ± 2.6 J/K/mol
same,molar heat capacity at constant pressure,"168.06 K, Liquid, x1 = 0.19",64.45 ± 13 J/K/mol
same,molar heat capacity at constant pressure,"169.79 K, Liquid, x1 = 0.23",65.61 ± 13 J/K/mol
same,molar heat capacity at constant pressure,"169.79 K, Liquid, x1 = 0.31",73.4 ± 15 J/K/mol
same,molar heat capacity at constant pressure,"170.12 K, Liquid, x1 = 0.73",109.3 ± 22 J/K/mol
same,molar heat capacity at constant pressure,"171.22 K, Liquid, x1 = 0.73",122.65 ± 5.4 J/K/mol
same,molar heat capacity at constant pressure,"171.38 K, Liquid, x1 = 0.23",68.96 ± 2.8 J/K/mol
same,molar heat capacity at constant pressure,"171.38 K, Liquid, x1 = 0.31",75.59 ± 3.1 J/K/mol
same,molar heat capacity at constant pressure,"171.85 K, Liquid, x1 = 0.19",61.57 ± 2.6 J/K/mol
same,molar heat capacity at constant pressure,"172.77 K, Liquid, x1 = 0.19",64.97 ± 13 J/K/mol
same,molar heat capacity at constant pressure,"174.5 K, Liquid, x1 = 0.23",65.61 ± 13 J/K/mol
same,molar heat capacity at constant pressure,"174.5 K, Liquid, x1 = 0.31",73.4 ± 15 J/K/mol
same,molar heat capacity at constant pressure,"174.52 K, Liquid, x1 = 0.73",121.66 ± 4.9 J/K/mol
same,molar heat capacity at constant pressure,"174.68 K, Liquid, x1 = 0.23",69.52 ± 3.1 J/K/mol
same,molar heat capacity at constant pressure,"174.68 K, Liquid, x1 = 0.31",75.59 ± 3.1 J/K/mol
same,molar heat capacity at constant pressure,"174.83 K, Liquid, x1 = 0.73",109.3 ± 22 J/K/mol
same,molar heat capacity at constant pressure,"175.15 K, Liquid, x1 = 0.19",61.83 ± 2.6 J/K/mol
same,molar heat capacity at constant pressure,"177.48 K, Liquid, x1 = 0.19",65.23 ± 13 J/K/mol
same,molar heat capacity at constant pressure,"179.21 K, Liquid, x1 = 0.23",65.89 ± 13 J/K/mol
same,molar heat capacity at constant pressure,"179.21 K, Liquid, x1 = 0.31",73.4 ± 15 J/K/mol
same,molar heat capacity at constant pressure,"179.55 K, Liquid, x1 = 0.73",109.79 ± 22 J/K/mol
same,molar heat capacity at constant pressure,"181.12 K, Liquid, x1 = 0.73",122.15 ± 4.9 J/K/mol
same,molar heat capacity at constant pressure,"181.28 K, Liquid, x1 = 0.23",70.36 ± 3.1 J/K/mol
same,molar heat capacity at constant pressure,"181.28 K, Liquid, x1 = 0.31",76.22 ± 3.1 J/K/mol
same,molar heat capacity at constant pressure,"181.75 K, Liquid, x1 = 0.19",62.35 ± 2.6 J/K/mol
same,molar heat capacity at constant pressure,"182.19 K, Liquid, x1 = 0.19",66.02 ± 13 J/K/mol
same,molar heat capacity at constant pressure,"183.93 K, Liquid, x1 = 0.23",66.17 ± 13 J/K/mol
same,molar heat capacity at constant pressure,"183.93 K, Liquid, x1 = 0.31",73.71 ± 15 J/K/mol
same,molar heat capacity at constant pressure,"184.27 K, Liquid, x1 = 0.73",109.79 ± 22 J/K/mol
same,molar heat capacity at constant pressure,"184.43 K, Liquid, x1 = 0.73",122.15 ± 4.9 J/K/mol
same,molar heat capacity at constant pressure,"184.58 K, Liquid, x1 = 0.31",76.22 ± 3.1 J/K/mol
same,molar heat capacity at constant pressure,"184.59 K, Liquid, x1 = 0.23",70.64 ± 3.1 J/K/mol
same,molar heat capacity at constant pressure,"186.92 K, Liquid, x1 = 0.19",66.54 ± 13 J/K/mol
same,molar heat capacity at constant pressure,"188.65 K, Liquid, x1 = 0.23",66.73 ± 13 J/K/mol
same,molar heat capacity at constant pressure,"188.65 K, Liquid, x1 = 0.31",74.02 ± 15 J/K/mol
same,molar heat capacity at constant pressure,"188.98 K, Liquid, x1 = 0.73",110.28 ± 22 J/K/mol
same,molar heat capacity at constant pressure,"191.04 K, Liquid, x1 = 0.73",120.18 ± 4.9 J/K/mol
same,molar heat capacity at constant pressure,"191.19 K, Liquid, x1 = 0.31",77.16 ± 3.1 J/K/mol
same,molar heat capacity at constant pressure,"191.2 K, Liquid, x1 = 0.23",71.48 ± 3.1 J/K/mol
same,molar heat capacity at constant pressure,"191.64 K, Liquid, x1 = 0.19",67.07 ± 13 J/K/mol
same,molar heat capacity at constant pressure,"193.38 K, Liquid, x1 = 0.23",67.57 ± 14 J/K/mol
same,molar heat capacity at constant pressure,"193.38 K, Liquid, x1 = 0.31",74.65 ± 15 J/K/mol
same,molar heat capacity at constant pressure,"193.72 K, Liquid, x1 = 0.73",111.27 ± 22 J/K/mol
same,molar heat capacity at constant pressure,"194.5 K, Liquid, x1 = 0.31",77.47 ± 3.1 J/K/mol
same,molar heat capacity at constant pressure,"194.51 K, Liquid, x1 = 0.23",72.04 ± 3.1 J/K/mol
same,molar heat capacity at constant pressure,"196.37 K, Liquid, x1 = 0.19",67.85 ± 14 J/K/mol
same,molar heat capacity at constant pressure,"198.1 K, Liquid, x1 = 0.23",68.13 ± 14 J/K/mol
same,molar heat capacity at constant pressure,"198.1 K, Liquid, x1 = 0.31",74.97 ± 15 J/K/mol
same,molar heat capacity at constant pressure,"198.44 K, Liquid, x1 = 0.73",112.26 ± 23 J/K/mol
same,molar heat capacity at constant pressure,"201.09 K, Liquid, x1 = 0.19",68.9 ± 14 J/K/mol
same,molar heat capacity at constant pressure,"201.13 K, Liquid, x1 = 0.23",72.59 ± 3.1 J/K/mol
same,molar heat capacity at constant pressure,"201.13 K, Liquid, x1 = 0.31",78.73 ± 3.5 J/K/mol
same,molar heat capacity at constant pressure,"202.83 K, Liquid, x1 = 0.23",68.96 ± 14 J/K/mol
same,molar heat capacity at constant pressure,"202.84 K, Liquid, x1 = 0.31",75.28 ± 15 J/K/mol
same,molar heat capacity at constant pressure,"203.18 K, Liquid, x1 = 0.73",112.76 ± 23 J/K/mol
same,molar heat capacity at constant pressure,"204.44 K, Liquid, x1 = 0.23",72.87 ± 3.1 J/K/mol
same,molar heat capacity at constant pressure,"204.44 K, Liquid, x1 = 0.31",79.36 ± 3.5 J/K/mol
same,molar heat capacity at constant pressure,"205.82 K, Liquid, x1 = 0.19",69.95 ± 14 J/K/mol
same,molar heat capacity at constant pressure,"207.56 K, Liquid, x1 = 0.23",69.8 ± 14 J/K/mol
same,molar heat capacity at constant pressure,"207.56 K, Liquid, x1 = 0.31",76.22 ± 15 J/K/mol
